Measured values from patent US7919077B2, “Pharmaceutical compositions comprising CCL2 and use of same for the treatment of inflammation” (Yeda Research and Development Co. Ltd., priority 2006, dated 2011).

What was measured:
[1] = Adjuvant arthritis (AA) rat model; format: in vivo, Lewis rats; details: rats; CCL2 240 ng daily day 0 to day 5; scored from day 10; FIG. 9
Procedure: Adjuvant Arthritis (AA) induction, assessment and treatment with CCL2-—AA was induced as previously described [Kannan, Theor Biol Med Model. (2005) 2:17] using 1 mg per rat of heat-killed Mt strain H37Ra (Difco). Each experimental and control group included at least eight rats. The day of AA induction was designated as day 0 and disease severity was assessed by direct observation of all four limbs in each animal. An observer blind to the experimental procedure scored AA for clinical manifestation of disease. A relative score between 0 and 4 was assigned to each limb, based on the degree of joint inflammation, redness and deformity. The maximum possible score for an individual animal was 16 [Kannan, supra].
Immediately following AA induction, rats were divided into two groups that were injected daily (from day 0 to day 5) with low dose CCL2 (240 ng in 300 μl of PBS) or PBS as control. Starting from day 10 post induction, the disease was scored as described hereinabove.
Results were presented as the mean±SEM of the difference between the two values for all the animals in each group. Experiments were repeated at least three times and produced similar results.

naïve T cells [2] = assay: Cytoskeleton rearrangement (actin polymerization), naïve T cells; format: cell-based, mice; details: naïve T cells pre-treated with CCL2 0.1 ng/ml, 15 seconds stimulation
Procedure: Cytoskeleton rearrangement—T cells were pre-incubated for 30 minutes in the presence or absence of CCL2 (0.1 ng/ml), and then stimulated with either CXCL12 (0.1 mg/ml PeproTech, Inc., Rocky Hill N.J.), SLC (CCL21, 0.4 mg/ml, PeproTech, Inc., Rocky Hill, N.J.), Rantes (0.1 mg/ml, R&D systems Minneapolis, Minn.), MIP-1β(0.1 mg/ml, R&D systems Minneapolis, Minn.) or Eotoxin (0.1 mg/ml R&D systems Minneapolis, Minn.) for 15 seconds. Cells were then immediately fixed with paraformaldehyde, permeabilized and their intracellular F-actin was stained with FITC-phalloidin (Sigma-Aldrich, St. Louis, Mo.), and then analyzed by flow cytometry to determine the state of their cytoskeleton, as previously described [Flaishon, L. F., et al., J. Biol. Chem. 276:46701 (2001)].

naïve T cells [3] = assay: Tracking of cells in vivo: homing of naïve T cells to LN and spleen; design: species or system C57BL/6 mice; details: cells pre-incubated 30 min with CCL2 0.1 ng/ml, injected i.v., 3 hours, vs control
Procedure: Tracking of cells in vivo—T cells pre-incubated for 30 minutes in the presence or absence of CCL2 (0.1 ng/ml RPMI) were washed, and labeled with […] of the fluorescent dye CFDA-SE (Molecular Probes/Invitrogen, Carlsbad, Calif., USA) for 15 minutes at room temperature. Thereafter, an equal amount (0.33×10^7) of CCL2-treated or -untreated cells were injected i.v. into C57BL/6 mice. After 3 hours, LNs and spleens were collected and the FITC-positive population was analyzed by FACS. The proportion of labeled cells recovered in the LN and spleen was determined as previously described [Flaishon, L. R., J. Exp. Med. 192:1381 (2000)] in four different experiments (10 mice in each group).

naive lymphocytes = assay: Intravital microscopy of mouse subiliac LN: lymphocyte rolling and sticking in HEVs; format: in vivo, C57BL/6 mice
Procedure: Intravital microscopy of mouse subiliac LN—Mice were anesthetized by intraperitoneal injection of 1 mg/ml xylazine and 5 mg/ml ketamine. The right femoral artery was catheterized. The left subiliac LN was prepared for IVM as previously described [Carriere et al., Cancer Res. (2005) 65:11639-11648; M'Rini et al., J Exp Med. (2003) 198:1301-1312], and the mouse was then transferred to a customized intravital video microscopy setup (INM 100; Leica Microsystems SA, Rueil-Malmaison, France) equipped with water immersion objectives (HCX APO; Leica Microsystems SA, Rueil-Malmaison, France). Fluorescent events in the LN microcirculation were visualized and recorded by a silicon-intensified target camera (Hamamatsu Photonics, Massy, France) and stored on DVCAM video tapes (DSR-11 Sony, IEC-ASV, Toulouse, France).
For visualization of naive lymphocyte interactions with LN vascular endothelium, naïve lymphocytes obtained from single T and B cell suspensions of a control C57BL/6 pool of subiliac, axillary, brachial and mesenteric LNs were incubated in the presence or absence of CCL2 (R&D Systems, Lille, France; 1 ng/ml, 30 minutes, 37° C.), fluorescently labeled by calcein AM (Molecular Probes-Invitrogen, Cergy Pontoise, France; 0.25 microM, 5 min, 37° C.) and then injected into the right femoral artery. Cell behavior in LN venules was assessed as previously described [Carriere et al., supra; M'Rini et al., supra]. The rolling fraction was determined as the percentage of cells that rolled along the vascular lining in the total flux of cells per venule. The sticking fraction was determined as the percentage in rolling cells of cells firmly adherent for at least 10 seconds or 1 minute.

## CCL2: mammalian (e.g., human) CCL2 protein, GenBank NM_002982 / NP_002973; murine CCL2 used in the asthma model
[1]
  adjuvant arthritis disease score (max 16): significantly inhibited the onset of the disease
naïve T cells [2]; FIG. 2c
  inhibition of CXCL12-induced actin polymerization: 40-50%
naïve T cells [2]; FIG. 2d
  inhibition of CCL21-induced actin polymerization: 40-50%
naïve T cells [3]; FIG. 4a
  reduction in homing of naïve T cells into the LN: 50%
naïve T cells [3]; FIG. 4b
  migration of T cells to the spleen: no difference
Naive lymphocytes; 30 minutes after injection of the fluorescent cells, FIGS. 5f-g
  number of firmly bound lymphocytes in the PLN venular tree: striking reduction
Naive lymphocytes; lymphocytes pre-treated with CCL2 1 ng/ml 30 minutes, FIG. 5b
  L-selectin mediated rolling in HEVs (rolling fraction): did not significantly alter
Naive lymphocytes; lymphocytes pre-treated with CCL2 1 ng/ml 30 minutes, vs control, FIG. 5c
  sticking fraction 10 seconds: comparable
Naive lymphocytes; lymphocytes pre-treated with CCL2 1 ng/ml 30 minutes, vs control, FIG. 5e
  percentage of cells which remained adherent 1 minute after initial arrest: severe reduction
Naive lymphocytes; lymphocytes pre-treated with CCL2 1 ng/ml 30 minutes, vs control, FIG. 5d
  percentage of cells which remained adherent 30 seconds after initial arrest: severe reduction
